pIC50: −log10 of the molar value.
Key:
[1] = tested on: Human non-small cell lung cancer cells NCI-H1299; assay: NCI-H1299 cell proliferation inhibition (CellTiter-Glo); format: cell-based; conditions: cultured 3 days, table head NCI-H1975, method NCI-H1299
Protocol: 2. Determination of Cell Proliferation Activity of Compounds:
NCI-H1299 cell proliferation inhibition screening method was established using CellTiter-fib detection reagent from Promega.
Human non-small cell lung cancer cells NCI-H1299 were cultured in 25 cm^2 or 75 cm^2 plastic tissue culture flasks (Corning) filled with DMEM (Gibco) medium supplemented with 10% fetal bovine serum (Hyclone) under 37° C., 95% air, and 5% CO2, and subcultured 2-3 times a week.
Cells were seeded at 1000 cells/well in a 96-well cell culture plate (Corning), 195 μL/well, and cultured under 37° C., 95% air, and 5% CO2. The next day test compound was added: 10 mM compounds (dissolved in DMSO) were subjected to 3-fold gradient dilution in DMSO, 2 μL of diluent from each concentration was added to 48 μL of serum-fret medium, and finally 5 μL of the diluted compound was added to the plate seeded with cells. The final concentration of DMSO in the cell culture was 0.1% and the foul concentration of the test compound was 0.3 nM-10 μM. The cells were cultured at 37° C. for 3 days.

[2] = biological target: T1, WEE1 kinase (Homo sapiens, UniProt P30291); assay: WEE1 kinase binding assay (LanthaScreen EU); conditions: WEE1 kinase 20 nM, Kinase Tracer 178 100 nM, 23° C. for 60 min, read-out: WEEI (IC50)
T1 construct: purchased Carna bioscience
Protocol: 1. Assay for WEE1 Kinase Inhibitory Activity (IC50) on Compounds
The WEE1 kinase binding assay was established and optimized with LanthaScreen EU for the determination of the activity of compounds. 10 mM compounds were subjected to ten-fold gradient dilution in 100% DMSO (6 concentrations in total), 5 μL of diluent from each concentration was added to 45 μL of reaction buffer (50 mM HEPES (4-hydroxyethylpiperazine ethanesulfonic acid), pH 7.5, 10 mM MgCl2 (magnesium chloride), 1 mM EGTA (ethylene glycol diethyl ether diamine tetraacetic acid), 0.01% Brij-35 (polyoxyethylene lauryl ether)) for blending. On this basis, 2 μL diluent from each concentration was added to 48 μL of reaction buffer for blending as a 4*compound (final concentrations of 1000, 100, 10, 1, 0.1, 0 nM) for later use. Reaction buffer was used to formulate 4*WEE1 kinase (purchased from Carna bioscience, a final concentration of 20 nM), 4*LanthaScreen EU-anti-GST Antibody (purchased from Invitrogen, PV5594, a fuel concentration of 2 nM), and 4*Kinase Tracer 178 (purchased from Invitrogen, PV5593, a final concentration of 100 nM). 2.5 μL of 4*compound was added to a 384-well plate (OptiPlate-384, purchased from PerkinElmer), followed by adding 2.5 μL of 4*WEE1 kinase, standing for 5 min at room temperature. Then 2.5 μL of 4*LanthaScreen EU-anti-GST Antibody was added followed by 2.5 μL of 4*Kinase Tracer 178. The reaction was started by centrifugation (a total reaction volume of 10 μL). The 384-well plate was wrapped with tin foil paper and placed in an incubator at 23° C. for 60 min. Fluorescence values (excitation at 320 nm, detecting emitted light at 665 nm and 615 nm, and a ratio of the two as enzyme activity) were read on Envision (purchased from PerkinElmer). The enzyme activity of each compound was measured at 6 concentrations, and the IC50 value of the compound was calculated using GraFit6.0 software (Erithacus Software).
The aforementioned “*” refers to multiplying, representing multiples.

T1 sequence (P30291 whole entry): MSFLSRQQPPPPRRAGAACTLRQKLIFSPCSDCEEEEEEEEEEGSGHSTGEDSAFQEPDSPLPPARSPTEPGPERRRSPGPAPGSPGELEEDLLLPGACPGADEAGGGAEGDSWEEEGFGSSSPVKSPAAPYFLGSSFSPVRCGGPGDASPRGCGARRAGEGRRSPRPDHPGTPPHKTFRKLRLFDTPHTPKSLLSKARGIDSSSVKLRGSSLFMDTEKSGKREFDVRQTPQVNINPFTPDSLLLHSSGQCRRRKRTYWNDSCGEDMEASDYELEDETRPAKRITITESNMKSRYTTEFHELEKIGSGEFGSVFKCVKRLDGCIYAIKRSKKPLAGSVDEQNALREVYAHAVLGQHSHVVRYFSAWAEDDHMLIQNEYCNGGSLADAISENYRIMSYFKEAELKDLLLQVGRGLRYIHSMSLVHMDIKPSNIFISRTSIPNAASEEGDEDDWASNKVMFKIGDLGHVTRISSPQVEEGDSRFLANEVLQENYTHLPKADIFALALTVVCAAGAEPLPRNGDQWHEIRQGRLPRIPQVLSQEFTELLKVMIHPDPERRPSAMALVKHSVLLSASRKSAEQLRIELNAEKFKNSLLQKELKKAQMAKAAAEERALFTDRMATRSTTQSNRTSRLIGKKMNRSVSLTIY

Structure (SMILES)	pIC50 ([1]; Homo sapiens, 72 h)	pIC50 [2]	pIC50 [1]
CCCc1c(F)c2cnc(Nc3ccc(N4CCN(C)CC4)cc3)nc2n1-c1cccc(N=S(C)(C)=O)n1 [Example 1, ((6-(5-fluoro-2-((4-(4-methylpiperazin-1-yl)phenyl)amino)-6-propyl-7H-pyrrolo[2,3-d]pyrimidin-7-yl)pyridin-2-yl)imino)dimethyl-λ^6-sulfanone]	7.37	9.24	
CCCc1cc2cnc(Nc3ccc(N4CCN(C)CC4)cc3)nc2n1-c1cccc(C(C)(C)O)n1 [Example 2, 2-(6-(2-((4-(4-methylpiperazin-1-yl)phenyl)amino)-6-propyl-7H-pyrrolo[2,3-d]pyrimidin-7-yl)pyridin-2-yl)propan-2-ol]		9.06	
CCCc1cc2cnc(Nc3ccc(N4CCN(C)CC4)cc3)nc2n1-c1cccc(N=S(C)(C)=O)n1 [Example 4, ((6-(2-((4 (4-methylpiperazin-1-yl)phenyl)amino)-6-propyl-7H-pyrrolo[2,3-d]pyrimidin-7-yl)pyridin-2-yl)imino)dimethyl-λ^6-sulfanone]	7.48	9.12	
CC(C)c1cc2cnc(Nc3ccc(N4CCN(C)CC4)cc3)nc2n1-c1cccc(N=S(C)(C)=O)n1 [Example 6, ((6-(6-isopropyl-2-((4 (4-methylpiperazin-1-yl)phenyl)amino)-7H-pyrrolo[2,3-d]pyrimidin-7-yl)pyridin-2-yl)imino)dimethyl-λ^6-sulfanone]		9.02	
CCCc1cc2cnc(Nc3ccc(N4CCN(C)CC4)cc3)nc2n1-c1cccc(N=S(C)(C)=O)n1 [Example 7, ((6-(6-propyl-2-((4-(4-methylpiperazin-yl)phenyl)amino)-7H-pyrrolo[2,3-d]pyrimidin-7-yl)pyridin-2-yl)imino)dimethyl-λ^6-sulfanone]		9.04	7.38
Cc1cc2cnc(Nc3ccc(N4CCN(C)CC4)cc3)nc2n1-c1cccc(N=S(C)(C)=O)n1 [Example 13, ((6-(6-methyl-2 ((4 (4-methylpiperazin-1-yl)phenyl)amino)-7H-pyrrolo[2,3-d]pyrimidin-7-yl)pyridin-2-yl)imino)dimethyl-λ^6-sulfanone]	7.23	9.29	
CN(C)CCN(C)c1ccc(Nc2ncc3c(F)c(C4CC4)n(-c4cccc(N=S(C)(C)=O)n4)c3n2)cc1 [Example 14, ((6-(5-fluoro-2-((4-((2-(dimethylamino)ethyl)(methyl)amino)phenyl)amino)-6-cyclopropyl-7H-pyrrolo[2,3-d]pyrimidin-7-yl)pyridin-2-yl)imino)dimethyl-λ^6-sulfanone]		9.00	
CN1CCN(c2ccc(Nc3ncc4c(F)c(C5CC5)n(-c5cccc(N=S(C)(C)=O)n5)c4n3)cc2)CC1CO (centres unmarked) [Example 27, ((6-(6-cyclopropyl-5-fluoro-2 ((4-(3-hydroxymethyl-4-methylpiperazin-1-yl)phenyl)amino)-7H-pyrrolo[2,3-d]pyrimidin-7-yl)pyridin-2-yl)imino)dimethyl-λ^6-sulfanone]	7.22	9.24	
CN1CCN(c2ccc(Nc3ncc4c(F)c(C5CC5)n(-c5cccc(N=S(C)(C)=O)n5)c4n3)cc2)C(CO)C1 (centres unmarked) [Example 28]		8.89	7.40
CN(C)CCc1ccc(Nc2ncc3c(F)c(C4CC4)n(-c4ccnc(N=S(C)(C)=O)n4)c3n2)cc1 [Example 32, ((6-(5-fluoro-2-((4-(2-(dimethylamino)ethyl)phenyl)amino)-6-cyclopropyl-7H-pyrrolo[2,3-d]pyrimidin-7-yl)pyrimidin-2-yl)imino)dimethyl-λ^6-sulfanone]		9.16	7.51
CS(C)(=O)=Nc1cccc(-n2c(C3CC3)c(F)c3cnc(Nc4ccc(N5CCC(N6CCOCC6)CC5)cc4)nc32)n1 [Example 35, ((6-(5-fluoro-2-((4-(4-(morpholine 4-yl)piperidin-1-yl)phenyl)amino)-6-cyclopropyl-7H-pyrrolo[2,3-d]pyrimidin-7-yl)pyridin-2-yl)imino)dimethyl-λ^6-sulfanone]		9.21	
CN1CCN(c2ccc(Nc3ncc4c(F)c(C5CC5)n(-c5cccc(N=S(C)(C)=O)n5)c4n3)cn2)CC1 [Example 37, ((6-(6-cyclopropyl-5-fluoro-2-((6-(4-methylpiperazin-1-yl)pyridin-3-yl)amino)-7H-pyrrolo[2,3-d]pyrimidin-7-yl)pyridin-2-yl)imino)dimethyl-λ^6-sulfanone]		8.97	
COc1cc(Nc2ncc3cc(C4CC4)n(-c4cccc(N=S(C)(C)=O)n4)c3n2)ccc1N1CCN(C)CC1 [Example 38, ((6-(2-(((3-methoxy-4-(4-methylpiperazin-1-yl)phenyl))amino)-6-cyclopropyl-7H-pyrrolo[2,3-d]pyrimidin-7-yl)pyridin-2-yl)imino)dimethyl-λ^6-sulfanone]		9.52	
CN1CCN(c2ccc(Nc3ncc4cc(C5CC5)n(-c5cccc(N=S(C)(C)=O)n5)c4n3)cc2F)CC1 [Example 40, ((6-(2-(((3-fluoro-4-(4-methylpiperazin-1-yl)phenyl))amino) 6-cyclopropyl-7H-pyrrolo[2,3-d]pyrimidin-7-yl)pyridin-2-yl)imino)dimethyl-λ^6-sulfanone]	7.38	9.29	
CN1CCN(C2CCN(c3ccc(Nc4ncc5c(F)c(C6CC6)n(-c6cccc(N=S(C)(C)=O)n6)c5n4)cc3F)CC2)CC1 [Example 47, ((6-(5-fluoro-2-((3-fluoro-4-(4-(4-methylpiperazin-1-yl)piperidin-1-yl)phenyl)amino)-6-cyclopropyl-7H-pyrrolo[2,3-d]pyrimidin-7-yl)pyridin-2-yl)imino)dimethyl-λ^6-sulfanone]	7.20	9.01	
CN1CCN(C2CCN(c3ccc(Nc4ncc5cc(C6CC6)n(-c6cccc(N=S(C)(C)=O)n6)c5n4)cc3Cl)CC2)CC1 [Example 54]		8.98	
CN1CCN(c2ccc(Nc3ncc4cc(C5CC5)n(-c5cccc(C(C)(C)O)n5)c4n3)cc2)CC1 [Example 55, 2-(6-(2-((4-(4-methylpiperazin-1-yl)phenyl)amino)-6-cyclopropyl-7H-pyrrolo[2,3-d]pyrimidin-7-yl)pyridin-2-yl)propan-2-ol]		9.01	
CS(C)(=O)=Nc1cccc(-n2c(C3CC3)c(F)c3cnc(Nc4ccc(C5C[C@H]6CC[C@@H](C5)N6)cc4)nc32)n1 (some centres unmarked) [Example 63]		9.07	
CS(C)(=O)=Nc1cccc(-n2c(C3CC3)c(F)c3cnc(Nc4ccc(N5C[C@H]6CC[C@@H](C5)N6)cc4)nc32)n1 [Example 80, ((6-(2-((4-((1R,5S)-3,8-diazabicyclo[3.2.1]octan-3-yl)phenyl)amino)-6-cyclopropyl-5-fluoro-7H-pyrrolo[2,3-d]pyrimidin-7-yl)pyridin-2-yl)imino)dimethyl-λ^6-sulfanone]		8.93	
CCCc1cc2cnc(Nc3ccc(N4CCN(CCN(C)C)CC4)cc3)nc2n1-c1cccc(C(C)(C)O)n1 [Example 109, 2-(6-(6-propyl-2-((4-(4 (2-(dimethylamino)ethyl)piperazin-1-yl)phenyl)amino)-7H-pyrrolo[2,3-d]pyrimidin-7-yl)pyridin-2-yl)propan-2-ol]		8.95	
CC(C)c1cc2cnc(Nc3ccc(N4CCN(C)CC4)cc3)nc2n1-c1cccc(C(C)(C)O)n1 [Example 141, 2-(6-(6-isopropyl-2-((4-(4-methylpiperazin-1-yl)phenyl)amino)-7H-pyrrolo[2,3-d]pyrimidin-7-yl)pyridin-2-yl)propan-2-ol]		9.08	
Cc1cc2cnc(Nc3ccc(N4CCN(C)CC4)cc3)nc2n1-c1cccc(C(C)(C)O)n1 [Example 145, 2-(6-(6-methyl-2-((4 (4-methylpiperazin-1-yl)phenyl)amino)-7H-pyrrolo[2,3-d]pyrimidin-7-yl)pyridin-2-yl)propan-2-ol]		9.22	
CCc1cc2cnc(Nc3ccc(N4CCN(C)CC4)cc3)nc2n1-c1cccc(C(C)(C)O)n1 [Example 159, 2-(6-(6-ethyl-2-((4-(4-methylpiperazin-1-yl)phenyl)amino)-7H-pyrrolo[2,3-d]pyrimidin-7-yl)pyridin-2-yl)propan-2-ol]		9.23	

From patent US20220194960A1, “WEE1 INHIBITOR AND PREPARATION AND USE THEREOF” (SHOUYAO HOLDINGS (BEIJING) CO., LTD., priority 2019, published 2022)
